Measurements: patent US20190201419A1, “COMPOUND AND METHOD FOR THE TREATMENT AND DIAGNOSIS OF NEURODEGENERATIVE CONDITIONS” (Swansea University, priority 2013, published 2019)

Experiments:
Lxrα = biological target: T1, Lxrα (Homo sapiens, UniProt Q13133); assay: Lxrα luciferase reporter assay in SN4741 neural cells; type: cell-based, mouse; conditions: for Lxrα activation, luciferase activity (fold activation): 10 μM, 24 h
T1 construct: expressed in transfected cells; host or cells: SN4741 mouse neuronal cell line
T1 sequence (Q13133 1-447): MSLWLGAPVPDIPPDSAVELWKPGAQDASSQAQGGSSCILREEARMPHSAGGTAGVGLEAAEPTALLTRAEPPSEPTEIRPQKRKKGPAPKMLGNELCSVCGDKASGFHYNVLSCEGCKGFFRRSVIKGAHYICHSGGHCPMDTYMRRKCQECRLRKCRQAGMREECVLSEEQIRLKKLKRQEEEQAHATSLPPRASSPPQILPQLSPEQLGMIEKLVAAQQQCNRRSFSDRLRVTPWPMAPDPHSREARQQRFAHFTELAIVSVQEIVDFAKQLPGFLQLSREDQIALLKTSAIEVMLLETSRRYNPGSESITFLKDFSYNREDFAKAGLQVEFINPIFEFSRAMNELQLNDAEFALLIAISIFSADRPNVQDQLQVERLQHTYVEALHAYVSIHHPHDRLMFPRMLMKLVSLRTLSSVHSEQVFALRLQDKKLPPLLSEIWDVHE
Excerpt: (§1) Luciferase Reporter Assay.

Islet-1 = Islet-1 expression in Tg[Isl1:GFP] zebrafish embryos; type: in vivo; conditions: 10 μM, embryos 48 hpf
Description: Quantitative PCR, Total RNA was extracted from SN4741. cells and zebrafish treated with the compounds of interest using the RNeasy Mini Kit (Qiagen), 1 μg was treated with RQ1 RNase-free DNase (Promega) and reverse transcribed using SuperScript II Reverse Transcriptase (invitrogen) and random primers (invitrogen) (RT+reaction). Parallel reactions without reverse transcriptase enzyme were done as a control (RT−reaction), and Sybergreen real-time quantitative PCR assays were performed. Expression levels were obtained by normalization with the Value of the housekeeping gene encoding actin obtained for every sample in parallel assays.
(§2) Zebrafish Strain and Maintenance Zebrafish were raised on a 14/10 h day/night cycle and were kept at 28.5 ° C. Islet-1:GFP transgenic embryos were obtained via natural spawning and staged in hours or days post fertilization (hpf and dpt) according to Kimmel et al). Embryos older than 24 hpf were treated with 0.03% phenylthiourea (PTU) to inhibit pigmentation. MO injections were performed using splice site specific zebrafish lxi MO MO injected embryos were immediately dechorionated and transferred to a 96 well plate and exposed to dimethyl sulfoxide (DMSO) treated or ligand treated medium. Compound Exposure. Islet-1:GFP embryos were collected by natural mating and immediately (at 1 cell stage) dechorionated and transferred to a 96 well plate. Each of the compounds tested were obtained as 10 mM stock and diluted in embryo medium to a final concentration of 10 μM, and 200 μL was added to each well. DMSO or propan-2-ol treated embryo medium was taken as control. Ligand solutions were replaced every 12 h with fresh ligand solution prepared in PTU treated embryo medium. Embryos were collected at 48 hpf, fixed for 4 h at room temperature with 4% paraformaldehyde and then washed and kept in PBST. Immunocytochemistry was performed using an anti-GFP antibody and fluorescence was viewed and photographed using a Zeiss Axioplan compound microscope and a Zeiss Axiocam digital camera.

Lxrβ = biological target: T2, Lxrβ (Homo sapiens, UniProt P55055); assay: Lxrβ luciferase reporter assay in SN4741 neural cells; type: cell-based, mouse; conditions: SN4741 cells, 10 μM, 24 h
T2 construct: expressed in transfected cells; host or cells: SN4741 mouse neuronal cell line
T2 sequence (P55055 1-460): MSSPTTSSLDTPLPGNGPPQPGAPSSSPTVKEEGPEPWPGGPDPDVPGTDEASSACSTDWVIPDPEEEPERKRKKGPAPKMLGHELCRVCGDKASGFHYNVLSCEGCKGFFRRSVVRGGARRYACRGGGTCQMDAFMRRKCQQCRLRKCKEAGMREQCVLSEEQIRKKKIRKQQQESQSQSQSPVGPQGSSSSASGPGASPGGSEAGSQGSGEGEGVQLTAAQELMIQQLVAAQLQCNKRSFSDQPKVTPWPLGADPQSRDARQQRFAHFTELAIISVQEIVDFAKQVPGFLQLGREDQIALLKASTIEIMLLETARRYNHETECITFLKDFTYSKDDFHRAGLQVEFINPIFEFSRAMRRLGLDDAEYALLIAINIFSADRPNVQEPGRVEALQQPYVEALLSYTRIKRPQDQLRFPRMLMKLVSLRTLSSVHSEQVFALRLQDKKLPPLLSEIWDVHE
Excerpt: as §1

zebrafish embryos = assay: Survival of transgenic zebrafish embryos on compound exposure; type: in vivo
Description: as §2

[1] = tested on: Islet1+ oculomotor neurons; assay: Islet1+ cells in mouse E11.5 brain primary cultures; type: cell-based; conditions: wild type cultures
Description: Primary Brain Cultures. Brains from E11.5 mice were manually dissected, plated on poly-D-lysine (150,000 cells/cm^2) and grown in serum-free N2 media consisting of 1:1 mixture of F12 and DMEM with 10 ng/mL insulin, 100 μg/mL apo-transferrin, 100 μM putrescine, 20 nM progesterone, 30 nM selenium, 6 mg/mL glucose, and 1 mg/mL BSA. Cells were treated for 3 days in vitro (DIV) with the compounds of interest, fixed with 4% PFA and processed for staining using appropriate antibodies.
Antibodies and Detection Procedures. Cells were fixed in 4% PFA, washed in PBS and blocked in 5% normal goat serum/PBS for 1 h at room temperature. Primary antibodies were diluted in PBS (pH 7.4), 0.3% Triton X-100, 1% BSA and incubations were carried out overnight at +4° C. or at room temperature for 2 h. The antibodies used were anti-:BrdU (1:400; Abeam), Islet-1 (1:100: Developmental Studies Hybridoma Bank), cleaved caspase-3 (Aspt 75) (1:100; Cell Signaling Technology), tyrosine hydroxylase (TH; 1:1000; Pel-Freeze) GABA (1:1,000; Sigma), Bm3a (1:250; Millipore), Nkx6.1 (1:200; Novus Biologicals), choline acetyltransferase (ChAT; 1:500; Millipore) and appropriate secondary antibodies (Jackson ImmunoResearch or Alexa). Cells positive for the corresponding marker were counted directly at the microscope at a magnification of 20×. Cells were counted in every well, in eight consecutive fields (going from one side of the well to the other, passing through the center), in three different wells per experiment and in three different experiments per condition. Random pictures of the wells were taken for every condition to document the result, and representative pictures were subsequently selected to represent the quantitative data. Photos were acquired with a Zeiss Axioplan microscope and a Hamamatsu camera C4742-95 using the Openlab software.

CC(CCC[C@@H](C)[C@H]1CC[C@H]2[C@@H]3[C@H](O)CC4=CC(=O)CC[C@]4(C)[C@H]3CC[C@]12C)C(=O)O (stereo partly drawn) [7αH,3O-CA, 7α-hydroxy-3-oxocholest-4-en-26-oic acid]
Lxrα activation, luciferase activity (fold activation) (Lxrα): none of which was found to show significant activity | Islet-GFP expression (Islet-1): failed to regulate Islet-GFP expression | Lxrβ activation, luciferase activity (fold activation) (Lxrβ): none of which was found to show significant activity

CC(C)CCC[C@@H](C)[C@H]1CC[C@H]2[C@@H]3[C@H](O)CC4=CC(=O)CC[C@]4(C)[C@H]3C[C@H](O)[C@]12C [7α,12α-diHCO, 7α,12α-Dihydroxycholest-4-en-3-one]
Lxrα activation, luciferase activity (fold activation) (Lxrα): None of these compounds showed significant activity

CC(CO)CCC[C@@H](C)[C@H]1CC[C@H]2[C@@H]3[C@H](O)C=C4C[C@@H](O)CC[C@]4(C)[C@H]3CC[C@]12C (stereo partly drawn) [7α,26-diHC, 7α,26-dihydroxycholesterol]
Lxrα activation, luciferase activity (fold activation) (Lxrα): none of which was found to show significant activity | Lxrβ activation, luciferase activity (fold activation) (Lxrβ): none of which was found to show significant activity

CC(C)[C@@H](O)CC[C@@H](C)[C@H]1CC[C@H]2[C@@H]3CC=C4C[C@@H](O)CC[C@]4(C)[C@H]3CC[C@]12C [24S-HC, cholest-5-ene-3β,24S-diol]
Lxrα activation, luciferase activity (fold activation) (Lxrα): activate Lxr | Lxrβ activation, luciferase activity (fold activation) (Lxrβ): activate Lxr

CC(C)CCC[C@@H](C)[C@H]1CC[C@H]2[C@@H]3CCC4=CC(=O)CC[C@]4(C)[C@H]3CC[C@]12C [cholest-4-en-3-one]
Lxrα activation, luciferase activity (fold activation) (Lxrα): None of these compounds showed significant activity

CC(C)CCC[C@@H](C)[C@H]1CC[C@H]2[C@@H]3[C@H](O)CC4=CC(=O)CC[C@]4(C)[C@H]3CC[C@]12C [7α-HCO, 7α-Hydroxycholest-4-en-3-one]
Lxrα activation, luciferase activity (fold activation) (Lxrα): None of these compounds showed significant activity

CC(C)CCC[C@@H](C)[C@H]1CC[C@H]2[C@@H]3C=CC4=CC(=O)CC[C@]4(C)[C@H]3CC[C@]12C [cholesta-4,6-dien-3-one]
Lxrα activation, luciferase activity (fold activation) (Lxrα): None of these compounds showed significant activity

C[C@H](CCC(=O)O)[C@H]1CC[C@H]2[C@@H]3[C@H](O)C[C@@H]4C[C@H](O)CC[C@]4(C)[C@H]3CC[C@]12C [CDCA, chenodeoxycholic acid, reference compound]
Toxic effect on survival of the fish (zebrafish embryos): had a deleterious toxic effect which impaired the survival of the fish

CC(C)CCC[C@@H](C)[C@H]1CC[C@H]2[C@@H]3CC[C@H]4C[C@@H](O)CC[C@]4(C)[C@H]3CC[C@]12C [5α-cholestan-3β-ol]
Lxrα activation, luciferase activity (fold activation) (Lxrα): None of these compounds showed significant activity

C[C@@H](CO)CCC[C@@H](C)[C@H]1CC[C@H]2[C@@H]3CC=C4C[C@@H](O)CC[C@]4(C)[C@H]3CC[C@]12C [26-HC, cholest-(25R)-5-en-3β,26-diol]
Lxrα activation, luciferase activity (fold activation) (Lxrα): had no a significant effect | Number of Islet1+ cells [1]: no effect on the number of Islet1+ cells | Lxrβ activation, luciferase activity (fold activation) (Lxrβ): had no a significant effect

CC(CCC[C@@H](C)[C@H]1CC[C@H]2[C@@H]3[C@@H](O)CC4=CC(=O)CC[C@]4(C)[C@H]3CC[C@]12C)C(=O)O (stereo partly drawn) [7βH,3O-CA, 7β-hydroxy-3-oxocholest-4-en-26-oic acid]
Lxrα activation, luciferase activity (fold activation) (Lxrα): none of which was found to show significant activity | Lxrβ activation, luciferase activity (fold activation) (Lxrβ): none of which was found to show significant activity

CC(C)CC[C@@H](O)[C@@H](C)[C@H]1CC[C@H]2[C@@H]3CC=C4C[C@@H](O)CC[C@]4(C)[C@H]3CC[C@]12C [22R-HC, 22R-hydroxycholesterol, reference compound]
Lxr luciferase activity with addition of the Lxr antagonist GGPP (Lxrα; 10 μM metabolite + 10 μM GGPP): similarly blocked | Number of Islet1+ cells [1]: does not show an effect towards Islet1+ cells

CC(C)CCC[C@@H](C)[C@H]1CC[C@H]2[C@@H]3CC[C@H]4CC(=O)CC[C@]4(C)[C@H]3CC[C@]12C [5α-cholestan-3-one]
Lxrα activation, luciferase activity (fold activation) (Lxrα): None of these compounds showed significant activity

CC(CO)CCC[C@@H](C)[C@H]1CC[C@H]2[C@@H]3[C@H](O)CC4=CC(=O)CC[C@]4(C)[C@H]3CC[C@]12C (stereo partly drawn) [7α,26-diHCO, 7α,26-dihydroxycholest-4-en-3-one]
Lxrα activation, luciferase activity (fold activation) (Lxrα): none of which was found to show significant activity | Lxrβ activation, luciferase activity (fold activation) (Lxrβ): none of which was found to show significant activity
